Key:
[1] = test system: MV-4-11; test: Oncology cell growth assay MV-4-11 (CellTiter Glo, 72 hours); format: cell-based; details: Homo sapiens, MV4-11, 72 h; MV-4-11 cell growth inhibitory activity, 3d
Method in brief: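 Growth read by CellTiter Glo luminescence after 72 h compound exposure of MV-4-11 AML cells (MLL-AF4), using 8-point 1:3 series to 10 μM final in 0.2% DMSO. Data normalized to DMSO wells, four-parameter fit yields pIC50.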

[2] = test system: bromodomain; test: Bromodomain cell assays of Example 40 (at least one of them); format: cell-based; details: in at least one of the bromodomain cell assays described in Example 40
Method in brief: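 Growth inhibition: 3000 MV-4-11, MOLM-13, MM.1S or neuroblastoma cells/well got an 8-point 1:3 series from 10 μM top (0.2% DMSO) for 72 h, then CellTiter-Glo luminescence. Myc reporter: MV-4-11 with E-box firefly luciferase, 24 h exposure, One-Glo luminescence plus CellTiter-Fluo cell count. pIC50 from four-parameter fit.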

## Cc1noc(C)c1-c1cnc2c(-c3cnn(C)c3)cn(S(=O)(=O)c3ccccc3F)c2c1 [P-0121, 4-[1-(2-fluorophenyl)sulfonyl-3-(1-methylpyrazol-4-yl)pyrrolo[3,2-b]pyridin-6-yl]-3,5-dimethyl-isoxazole]
[1]
  IC50: ≤ 1 µM
[2]
  IC50: < 10 µM

## Cc1noc(C)c1-c1cnc2c(-c3cnn(C)c3)cn(S(=O)(=O)c3cccc(F)c3)c2c1 [P-0122, 4-[1-(3-fluorophenyl)sulfonyl-3-(1-methylpyrazol-4-yl)pyrrolo[3,2-b]pyridin-6-yl]-3,5-dimethyl-isoxazole]
[1]
  IC50: ≤ 1 µM
[2]
  IC50: < 10 µM

## Cc1noc(C)c1-c1cnc2c(-c3cnn(C)c3)cn(S(=O)(=O)c3ccc(F)cc3)c2c1 [P-0123, 4-[1-(4-fluorophenyl)sulfonyl-3-(1-methylpyrazol-4-yl)pyrrolo[3,2-b]pyridin-6-yl]-3,5-dimethyl-isoxazole]
[1]
  IC50: ≤ 1 µM
[2]
  IC50: < 10 µM

## CCn1cc(-c2cn(S(=O)(=O)c3ccccc3F)c3cc(-c4c(C)noc4C)cnc23)cn1 [P-0125, 4-[3-(1-ethylpyrazol-4-yl)-1-(2-fluorophenyl)sulfonyl-pyrrolo[3,2-b]pyridin-6-yl]-3,5-dimethyl-isoxazole]
[1]
  IC50: ≤ 1 µM
[2]
  IC50: < 10 µM

## C=CCn1cc(-c2cn(S(=O)(=O)c3ccccc3)c3cc(-c4c(C)noc4C)cnc23)cn1 [P-0126, 4-[3-(1-allylpyrazol-4-yl)-1-(benzenesulfonyl)pyrrolo [3,2-b]pyridin-6-yl]-3,5-dimethyl-isoxazole]
[1]
  IC50: ≤ 1 µM
[2]
  IC50: < 10 µM

## C=CCn1cc(-c2cn(S(=O)(=O)c3ccccc3F)c3cc(-c4c(C)noc4C)cnc23)cn1 [P-0127, 4-[3-(1-allylpyrazol-4-yl)-1-(2-fluorophenyl)sulfonyl-pyrrolo[3,2-b]pyridin-6-yl]-3,5-dimethyl-isoxazole]
[1]
  IC50: ≤ 1 µM
[2]
  IC50: < 10 µM

## C=CCn1cc(-c2cn(S(=O)(=O)C3CCCC3)c3cc(-c4c(C)noc4C)cnc23)cn1 [P-0128, 4-[3-(1-allylpyrazol-4-yl)-1-cyclopentylsulfonyl-pyrrolo [3,2-b]pyridin-6-yl]-3,5-dimethyl-isoxazole]
[1]
  IC50: ≤ 1 µM
[2]
  IC50: < 10 µM

## C=CCn1cc(-c2cn(S(=O)(=O)CCC(F)(F)F)c3cc(-c4c(C)noc4C)cnc23)cn1 [P-0129, 4-[3-(1-allylpyrazol-4-yl)-1-(3,3,3-trifluoropropylsulfonyl)pyrrolo[3,2-b]pyridin-6-yl]-3,5-dimethyl-isoxazole]
[1]
  IC50: ≤ 1 µM
[2]
  IC50: < 10 µM

## Cc1noc(C)c1-c1cnc2c(-c3cnn(C(F)F)c3)cn(S(=O)(=O)c3ccccc3)c2c1 [P-0131, 4-[1-(benzenesulfonyl)-3-[1-(difluoromethyl)pyrazol-4-yl]pyrrolo[3,2-b]pyridin-6-yl]-3,5-dimethyl-isoxazole]
[1]
  IC50: ≤ 1 µM
[2]
  IC50: < 10 µM

## Cc1noc(C)c1-c1cnc2c(-c3cnn(C(F)F)c3)cn(S(=O)(=O)c3ccccc3F)c2c1 [P-0132, 4-[3-[1-(difluoromethyl)pyrazol-4-yl]-1-(2-fluorophenyl)sulfonyl-pyrrolo[3,2-b]pyridin-6-yl]-3,5-dimethyl-isoxazole]
[1]
  IC50: ≤ 1 µM
[2]
  IC50: < 10 µM

## Cc1noc(C)c1-c1cnc2c(-c3cnn(C(F)F)c3)cn(S(=O)(=O)C3CCC3)c2c1 [P-0134, 4-[1-cyclobutylsulfonyl-3-[1-(difluoromethyl)pyrazol-4-yl]pyrrolo[3,2-b]pyridin-6-yl]-3,5-dimethyl-isoxazole]
[1]
  IC50: ≤ 1 µM
[2]
  IC50: < 10 µM

## CCCS(=O)(=O)n1cc(-c2cnn(C(F)F)c2)c2ncc(-c3c(C)noc3C)cc21 [P-0135, 4-[3-[1-(difluoromethyl)pyrazol-4-yl]-1-propylsulfonyl-pyrrolo [3,2-b]pyridin-6-yl]-3,5-dimethyl-isoxazole]
[1]
  IC50: ≤ 1 µM
[2]
  IC50: < 10 µM

## Cc1noc(C)c1-c1cnc2c(-c3cnn(C(F)F)c3)cn(S(=O)(=O)CCC(F)(F)F)c2c1 [P-0136, 4-[3-[1-(difluoromethyl)pyrazol-4-yl]-1-(3,3,3-trifluoropropylsulfonyl)pyrrolo[3,2-b]pyridin-6-yl]-3,5-dimethyl-isoxazole]
[1]
  IC50: 1 to 10 µM
[2]
  IC50: < 10 µM

## C=CCn1cc(-c2cn(S(=O)(=O)CCC)c3cc(-c4c(C)noc4C)cnc23)cn1 [P-0137, 4-[3-(1-allylpyrazol-4-yl)-1-propylsulfonyl-pyrrolo[3,2-b]pyridin-6-yl]-3,5-dimethyl-isoxazole]
[1]
  IC50: ≤ 1 µM
[2]
  IC50: < 10 µM

## C=CCn1cc(-c2cn(S(=O)(=O)C(C)CC)c3cc(-c4c(C)noc4C)cnc23)cn1 (centres unmarked) [P-0138, 4-[3-(1-allylpyrazol-4-yl)-1-sec-butylsulfonyl-pyrrolo[3,2-b]pyridin-6-yl]-3,5-dimethyl-isoxazole]
[1]
  IC50: ≤ 1 µM
[2]
  IC50: < 10 µM

## C=CCn1cc(-c2cn(S(=O)(=O)C3CC3)c3cc(-c4c(C)noc4C)cnc23)cn1 [P-0139, 4-[3-(1-allylpyrazol-4-yl)-1-cyclopropylsulfonyl-pyrrolo[3,2-b]pyridin-6-yl]-3,5-dimethyl-isoxazole]
[1]
  IC50: ≤ 1 µM
[2]
  IC50: < 10 µM

## C=CCn1cc(-c2cn(S(=O)(=O)CC3CC3)c3cc(-c4c(C)noc4C)cnc23)cn1 [P-0140, 4-[3-(1-allylpyrazol-4-yl)-1-(cyclopropylmethylsulfonyl)pyrrolo[3,2-b]pyridin-6-yl]-3,5-dimethyl-isoxazole]
[1]
  IC50: ≤ 1 µM
[2]
  IC50: < 10 µM

## Cc1noc(C)c1-c1cnc2[nH]cc(Sc3cccc(F)c3)c2c1 [P-0141, 4-[3-(3-fluorophenyl)sulfanyl-1H-pyrrolo[2,3-b]pyridin-5-yl]-3,5-dimethyl-isoxazole]
[1]
  IC50: 1 to 10 µM
[2]
  IC50: < 10 µM

## Cc1noc(C)c1-c1cnc2[nH]cc([S+]([O-])c3cccc(F)c3)c2c1 (centres unmarked) [P-0142, 4-[3-(3-fluorophenyl)sulfinyl-1H-pyrrolo[2,3-b]pyridin-5-yl]-3,5-dimethyl-isoxazole]
[1]
  IC50: 1 to 10 µM
[2]
  IC50: < 10 µM

## Cc1noc(C)c1-c1cnc2[nH]cc(S(=O)(=O)c3cccc(F)c3)c2c1 [P-0143, 4-[3-(3-fluorophenyl)sulfonyl-1H-pyrrolo[2,3-b]pyridin-5-yl]-3,5-dimethyl-isoxazole]
[1]
  IC50: ≤ 1 µM
[2]
  IC50: < 10 µM

## Cc1noc(C)c1-c1cnc2[nH]cc(Sc3ccccc3)c2c1 [P-0144, 3,5-dimethyl-4-(3-phenylsulfanyl-1H-pyrrolo[2,3-b]pyridin-5-yl)isoxazole]
[1]
  IC50: 1 to 10 µM
[2]
  IC50: < 10 µM

## Cc1noc(C)c1-c1cnc2[nH]cc(S(=O)(=O)c3ccccc3)c2c1 [P-0145, 4-[3-(benzenesulfonyl)-1H-pyrrolo[2,3-b]pyridin-5-yl]-3,5-dimethyl-isoxazole]
[1]
  IC50: ≤ 1 µM
[2]
  IC50: < 10 µM

## Cc1noc(C)c1-c1cnc2c(-c3cnn(CC(F)(F)F)c3)cn(S(=O)(=O)c3ccccc3)c2c1 [P-0146, 4-[1-(benzenesulfonyl)-3-[1-(2,2,2-trifluoroethyl)pyrazol-4-yl]pyrrolo[3,2-b]pyridin-6-yl]-3,5-dimethyl-isoxazole]
[1]
  IC50: ≤ 1 µM
[2]
  IC50: < 10 µM

## COCCn1cc(-c2cn(S(=O)(=O)c3ccccc3)c3cc(-c4c(C)noc4C)cnc23)cn1 [P-0147, 4-[1-(benzenesulfonyl)-3-[1-(2-methoxyethyl)pyrazol-4-yl]pyrrolo[3,2-b]pyridin-6-yl]-3,5-dimethyl-isoxazole]
[1]
  IC50: ≤ 1 µM
[2]
  IC50: < 10 µM

## Cc1noc(C)c1-c1cnc2c(-c3cnn(C4CCOC4)c3)cn(S(=O)(=O)c3ccccc3)c2c1 (centres unmarked) [P-0148, 4-[1-(benzenesulfonyl)-3-(1-tetrahydrofuran-3-ylpyrazol-4-yl)pyrrolo[3,2-b]pyridin-6-yl]-3,5-dimethyl-isoxazole]
[1]
  IC50: ≤ 1 µM
[2]
  IC50: < 10 µM

## Cc1noc(C)c1-c1cnc2c(-c3cnn(CC(F)(F)F)c3)cn(S(=O)(=O)C3CCCC3)c2c1 [P-0149, 4-[1-cyclopentylsulfonyl-3-[1-(2,2,2-trifluoroethyl)pyrazol-4-yl]pyrrolo[3,2-b]pyridin-6-yl]-3,5-dimethyl-isoxazole]
[1]
  IC50: ≤ 1 µM
[2]
  IC50: < 10 µM

## CCCS(=O)(=O)n1cc(-c2cnn(CC(F)(F)F)c2)c2ncc(-c3c(C)noc3C)cc21 [P-0150, 3,5-dimethyl-4-[1-propylsulfonyl-3-[1-(2,2,2-trifluoroethyl)pyrazol-4-yl]pyrrolo[3,2-b]pyridin-6-yl]isoxazole]
[1]
  IC50: ≤ 1 µM
[2]
  IC50: < 10 µM

## COCCn1cc(-c2cn(S(=O)(=O)C3CCCC3)c3cc(-c4c(C)noc4C)cnc23)cn1 [P-0151, 4-[1-cyclopentylsulfonyl-3-[1-(2-methoxyethyl)pyrazol-4-yl]pyrrolo[3,2-b]pyridin-6-yl]-3,5-dimethyl-isoxazole]
[1]
  IC50: ≤ 1 µM
[2]
  IC50: < 10 µM

## CCCS(=O)(=O)n1cc(-c2cnn(CCOC)c2)c2ncc(-c3c(C)noc3C)cc21 [P-0152, 4-[3-[l-(2-methoxyethyl)pyrazol-4-yl]-1-propylsulfonyl-pyrrolo [3,2-b]pyridin-6-yl]-3,5-dimethyl-isoxazole]
[1]
  IC50: ≤ 1 µM
[2]
  IC50: < 10 µM

## Cc1noc(C)c1-c1cnc2c(-c3cnn(C4CCOC4)c3)cn(S(=O)(=O)C3CCCC3)c2c1 (centres unmarked) [P-0153, 4-[1-cyclopentylsulfonyl-3-(1-tetrahydrofuran-3-ylpyrazol-4-yl)pyrrolo [3,2-b]pyridin-6-yl]-3,5-dimethyl-isoxazole]
[1]
  IC50: ≤ 1 µM
[2]
  IC50: < 10 µM

## CCCS(=O)(=O)n1cc(-c2cnn(C3CCOC3)c2)c2ncc(-c3c(C)noc3C)cc21 (centres unmarked) [P-0154, 3,5-dimethyl-4-[1-propylsulfonyl-3-(1-tetrahydrofuran-3-ylpyrazol-4-yl)pyrrolo [3,2-b]pyridin-6-yl] isoxazole]
[1]
  IC50: ≤ 1 µM
[2]
  IC50: < 10 µM

Source: patent US10501460B2, “Heterocyclic compounds and uses thereof” (Plexxikon Inc., priority 2013, dated 2019)
